The record followed here is patent US11207325B2, “Triazolopyrimidine compounds and uses thereof” (Novartis AG, priority 2014, dated 2021).

In this assay the test system is H3K27 methylation in G401 cell. As to the kind of experiment: ELISA (H3K27 methylation) assay. It counts as cell-based. Conditions: Homo sapiens, G-401; ELISA Qualified assay (H3K27 methylation); read-out: (c) IC50 (μM), ELISA Qualified. The text has this:
ELISA (H3K27 Methylation) Assay
One may read the IC50 as the midpoint of a concentration-inhibition curve. `CC(C)n1nccc1-c1cnc(NCc2c(F)ccc3c2CCO3)n2cnnc12` [Example 144, N-((5-fluoro-2,3-dihydrobenzofuran-4-yl)methyl)-8-(1-isopropyl-1H-pyrazol-5-yl)-[1,2,4]triazolo[4,3-c]pyrimidin-5-amine]: the IC50 came out at 0.0683 µM. Then `COc1cc(-c2cnc(NCc3c(F)ccc4c3CCO4)n3cnnc23)ccn1` [Example 145, N-((5-fluoro-2,3-dihydrobenzofuran-4-yl)methyl)-8-(2-methoxypyridin-4-yl)-[1,2,4]triazolo[4,3-c]pyrimidin-5-amine], with 0.0052 µM. As for `Fc1ccc2c(c1CNc1ncc(-c3ccc(Cl)cc3Cl)c3nncn13)CCO2` [Example 146, 8-(2,4-dichlorophenyl)-N-((5-fluoro-2,3-dihydrobenzofuran-4-yl)methyl)-[1,2,4]triazolo[4,3-c]pyrimidin-5-amine], the figure is 0.0744 µM. Then `Cn1cc(-c2cnc(NCc3c(F)ccc4c3CCO4)n3cnnc23)cn1` [Example 147, N-((5-fluoro-2,3-dihydrobenzofuran-4-yl)methyl)-8-(1-methyl-1H-pyrazol-4-yl)-[1,2,4]triazolo[4,3-c]pyrimidin-5-amine], with 0.0113 µM; and `CC(C)n1cc(-c2cnc(NCc3c(F)ccc4c3CCO4)n3cnnc23)c(C(F)(F)F)n1` [Example 148, N-((5-fluoro-2,3-dihydrobenzofuran-4-yl)methyl)-8-(1-isopropyl-3-(trifluoromethyl)-1H-pyrazol-4-yl)-[1,2,4]triazolo[4,3-c]pyrimidin-5-amine], with 0.0252 µM. Turning to `c1cc(CNc2ncc(-c3cnn(C4CC4)c3)c3nncn23)c2c(c1)OCC2` [Example 149, 8-(1-cyclopropyl-1H-pyrazol-4-yl)-N-((2,3-dihydrobenzofuran-4-yl)methyl)-[1,2,4]triazolo[4,3-c]pyrimidin-5-amine], the IC50 was 0.22 µM. On to `Fc1ccc2c(c1CNc1ncc(-c3cnn(C4CC4)c3)c3nncn13)CCO2` [Example 150, 8-(1-cyclopropyl-1H-pyrazol-4-yl)-N-((5-fluoro-2,3-dihydrobenzofuran-4-yl)methyl)-[1,2,4]triazolo[4,3-c]pyrimidin-5-amine], for which the IC50 was 0.0148 µM. Then `Cc1nn(C(C)C)c(C)c1-c1cnc(NCc2c(F)ccc3c2CCO3)n2cnnc12` [Example 151, N-((5-fluoro-2,3-dihydrobenzofuran-4-yl)methyl)-8-(1-isopropyl-3,5-dimethyl-1H-pyrazol-4-yl)-[1,2,4]triazolo[4,3-c]pyrimidin-5-amine], with 0.0086 µM; and `Cn1nccc1-c1cnc(NCc2cccc3c2CCO3)n2cnnc12` [Example 152, N-((2,3-dihydrobenzofuran-4-yl)methyl)-8-(1-methyl-1H-pyrazol-5-yl)-[1,2,4]triazolo[4,3-c]pyrimidin-5-amine], with 0.008 µM; and `Cc1nn(C(C)C)c(C)c1-c1cnc(NCc2cccc3c2CCO3)n2cnnc12` [Example 153, N-((2,3-dihydrobenzofuran-4-yl)methyl)-8-(1-isopropyl-3,5-dimethyl-1H-pyrazol-4-yl)-[1,2,4]triazolo[4,3-c]pyrimidin-5-amine], with 0.0073 µM.

In the case of `FC(F)c1ccc(-c2cnc(NCc3cccc4c3CCO4)n3cnnc23)cn1` [Example 154, 8-(6-(difluoromethyl)pyridin-3-yl)-N-((2,3-dihydrobenzofuran-4-yl)methyl)-[1,2,4]triazolo[4,3-c]pyrimidin-5-amine], the IC50 amounted to 0.0968 µM.

For `COc1ccc(-c2cnc(NCc3c(F)ccc4c3CCO4)n3cnnc23)c(C)n1` [Example 155, N-((5-fluoro-2,3-dihydrobenzofuran-4-yl)methyl)-8-(6-methoxy-2-methylpyridin-3-yl)-[1,2,4]triazolo[4,3-c]pyrimidin-5-amine], the IC50 was determined as 0.078 µM.

With `Cc1nc(N)ccc1-c1cnc(NCc2c(F)ccc3c2CCO3)n2cnnc12` [Example 156, 8-(6-amino-2-methylpyridin-3-yl)-N-((5-fluoro-2,3-dihydrobenzofuran-4-yl)methyl)-[1,2,4]triazolo[4,3-c]pyrimidin-5-amine], the IC50 was 0.0261 µM.
